Measured values taken from patent US12435060B2, “Acylamino bridged heterocyclic compound, and composition and application thereof” (BEIJING SCITECH-MQ PHARMACEUTICALS LIMITED, priority 2019, dated 2025).

These compounds were tested on HT29 cells (assay: Inhibition of cell necrosis (CCK8 method), induced programmed necrosis of HT29 cells). Conditions: Homo sapiens, HT-29; rescue from necrosis induced by TNF-α 20 ng/mL, AT-406 1 μM, Z-VAD-FMK 20 μM; 16-20 hours; CCK-8, OD 450 nm.
Type: cell-based
How it was run: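 HT29 cells in McCOY's 5A with 10% FBS were pre-treated for 30 min with compound (9 fourfold steps, 25000 to 0.38 nM final, 0.25% DMSO). Necrosis was then induced with TNF-α 20 ng/mL, AT-406 1 μM and Z-VAD-FMK 20 μM for 16-20 h. Viability was read by CCK-8 OD450, normalized between uninduced and induced wells, and IC50 was curve-fitted.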

`CC(C)(O)CCCOc1ccc(Cl)c(-c2ccnc(NC(=O)c3nnc(CC4CCCC4)[nH]3)c2)c1` [Example 356, N-(4-(2-chloro-5-((4-hydroxy-4-methylpentyl)oxy)phenyl)pyridin-2-yl)-5-(cyclopentylmethyl)-4H-1,2,4-triazole-3-carboxamide] and `CC(C)(O)CCCOc1ccc(Cl)c(-c2ccnc(NC(=O)c3nnc(CC4CCCCC4)[nH]3)c2)c1` [Example 357, N-(4-(2-chloro-5-((4-hydroxy-4-methylpentyl)oxy)phenyl)pyridin-2-yl)-5-(cyclohexylmethyl)-4H-1,2,4-triazole-3-carboxamide] cannot be ordered by IC50: ≤ 100 nM for the first, ≤ 100 nM for the second.

Compared with `CC(C)(O)CCCOc1ccc(Cl)c(-c2ccnc(NC(=O)c3nnc(CN4CCCC4)[nH]3)c2)c1` [Example 358, N-(4-(2-chloro-5-((4-hydroxy-4-methylpentyl)oxy)phenyl)pyridin-2-yl)-5-(pyrrolidin-1-ylmethyl)-4H-1,2,4-triazole-3-carboxamide], `CC(C)(O)CCCCOc1ccc(Cl)c(-c2ccnc(NC(=O)c3nnc(CC4CCCC4)[nH]3)c2)c1` [Example 369, N-(4-(2-chloro-5-((5-hydroxyl-5-methylhexyl)oxy)phenyl)pyridin-2-yl)-5-(cyclopentylmethyl)-4H-1,2,4-triazole-3-carboxamide] is lower in IC50: > 10000 nM for the first, ≤ 100 nM for the second.

`CCC(O)(CC)CCCOc1ccc(Cl)c(-c2ccnc(NC(=O)c3nnc(Cc4ccccc4)[nH]3)c2)c1` [Example 359, 5-benzyl-N-(4-(2-chloro-5-((4-ethyl-4-hydroxyhexyl)oxy)phenyl)pyridin-2-yl)-4H-1,2,4-triazole-3-carboxamide] and `CCC(O)(CC)CCCOc1ccc(Cl)c(-c2ccnc(NC(=O)c3nnc(Cc4ccccc4F)[nH]3)c2)c1` [Example 360, N-(4-(2-chloro-5-((4-ethyl-4-hydroxyhexyl)oxy)phenyl)pyridin-2-yl)-5-(2-fluorobenzyl)-4H-1,2,4-triazole-3-carboxamide] cannot be ordered by IC50: ≤ 100 nM for the first, ≤ 100 nM for the second.

`CCC(O)(CC)CCCOc1ccc(Cl)c(-c2ccnc(NC(=O)c3nnc(CC4CCCC4)[nH]3)c2)c1` [Example 361, N-(4-(2-chloro-5-((4-ethyl-4-hydroxyhexyl)oxy)phenyl)pyridin-2-yl)-5-(cyclopentylmethyl)-4H-1,2,4-triazole-3-carboxamide] and `CCC(O)(CC)CCCOc1ccc(Cl)c(-c2ccnc(NC(=O)c3nnc(CC4CCCCC4)[nH]3)c2)c1` [Example 362, N-(4-(2-chloro-5-((4-ethyl-4-hydroxyhexyl)oxy)phenyl)pyridin-2-yl)-5-(cyclohexylmethyl)-4H-1,2,4-triazole-3-carboxamide] cannot be ordered by IC50: ≤ 100 nM for the first, ≤ 100 nM for the second.

`CC(C)(O)COc1ccc(Cl)c(-c2ccnc(NC(=O)c3nnc(Cc4ccccc4)[nH]3)c2)c1` [Example 363, 5-benzyl-N-(4-(2-chloro-5-(2-hydroxyl-2-methylpropoxy)phenyl)pyridin-2-yl)-4H-1,2,4-triazole-3-carboxamide] and `CC(C)(O)CCCCOc1ccc(Cl)c(-c2ccnc(NC(=O)c3nnc(Cc4ccccc4)[nH]3)c2)c1` [Example 367, 5-benzyl-N-(4-(2-chloro-5-((5-hydroxyl-5-methylhexyl)oxy)phenyl)pyridin-2-yl)-4H-1,2,4-triazole-3-carboxamide] cannot be ordered by IC50: ≤ 100 nM for the first, ≤ 100 nM for the second.

`CC(C)(O)COc1ccc(Cl)c(-c2ccnc(NC(=O)c3nnc(Cc4ccccc4F)[nH]3)c2)c1` [Example 364, 5-(2-fluorobenzyl)-N-(4-(2-chloro-5-(2-hydroxyl-2-methylpropoxy)phenyl)pyridin-2-yl)-4H-1,2,4-triazole-3-carboxamide] and `CC(C)(O)CCCCOc1ccc(Cl)c(-c2ccnc(NC(=O)c3nnc(Cc4ccccc4F)[nH]3)c2)c1` [Example 368, 5-(2-fluorobenzyl)-N-(4-(2-chloro-5-((5-hydroxyl-5-methylhexyl)oxy)phenyl)pyridin-2-yl)-4H-1,2,4-triazole-3-carboxamide] cannot be ordered by IC50: ≤ 100 nM for the first, ≤ 100 nM for the second.

`CC(C)(O)COc1ccc(Cl)c(-c2ccnc(NC(=O)c3nnc(CC4CCCC4)[nH]3)c2)c1` [Example 365, N-(4-(2-chloro-5-(2-hydroxyl-2-methylpropoxy)phenyl)pyridin-2-yl)-5-(cyclopentylmethyl)-4H-1,2,4-triazole-3-carboxamide] and `CC(C)(O)COc1ccc(Cl)c(-c2ccnc(NC(=O)c3nnc(CC4CCCCC4)[nH]3)c2)c1` [Example 366, N-(4-(2-chloro-5-(2-hydroxyl-2-methylpropoxy)phenyl)pyridin-2-yl)-5-(cyclohexylmethyl)-4H-1,2,4-triazole-3-carboxamide] cannot be ordered by IC50: ≤ 100 nM for the first, ≤ 100 nM for the second.

`CC(C)(O)CCCCOc1ccc(Cl)c(-c2ccnc(NC(=O)c3nnc(CC4CCCCC4)[nH]3)c2)c1` [Example 370, N-(4-(2-chloro-5-((5-hydroxyl-5-methylhexyl)oxy)phenyl)pyridin-2-yl)-5-(cyclohexylmethyl)-4H-1,2,4-triazole-3-carboxamide] and `O=C(Nc1cc(-c2cc(OCCCCO)ccc2Cl)ccn1)c1nnc(CC2CCCCC2)[nH]1` [Example 374, N-(4-(2-chloro-5-(4-hydroxybutoxy)phenyl)pyridin-2-yl)-5-(cyclohexylmethyl)-4H-1,2,4-triazole-3-carboxamide] cannot be ordered by IC50: ≤ 100 nM for the first, ≤ 100 nM for the second.

`O=C(Nc1cc(-c2cc(OCCCCO)ccc2Cl)ccn1)c1nnc(Cc2ccccc2)[nH]1` [Example 371, 5-benzyl-N-(4-(2-chloro-5-(4-hydroxybutoxy)phenyl)pyridin-2-yl)-4H-1,2,4-triazole-3-carboxamide] and `O=C(Nc1cc(-c2cc(OCCCCCO)ccc2Cl)ccn1)c1nnc(Cc2ccccc2)[nH]1` [Example 375, 5-benzyl-N-(4-(2-chloro-5-((5-hydroxypentyl)oxy)phenyl)pyridin-2-yl)-4H-1,2,4-triazole-3-carboxamide] cannot be ordered by IC50: ≤ 100 nM for the first, ≤ 100 nM for the second.

`O=C(Nc1cc(-c2cc(OCCCCO)ccc2Cl)ccn1)c1nnc(Cc2ccccc2F)[nH]1` [Example 372, 5-(2-fluorobenzyl)-N-(4-(2-chloro-5-(4-hydroxybutoxy)phenyl)pyridin-2-yl)-4H-1,2,4-triazole-3-carboxamide] and `O=C(Nc1cc(-c2cc(OCCCCCO)ccc2Cl)ccn1)c1nnc(Cc2ccccc2F)[nH]1` [Example 376, 5-(2-fluorobenzyl)-N-(4-(2-chloro-5-((5-hydroxypentyl)oxy)phenyl)pyridin-2-yl)-4H-1,2,4-triazole-3-carboxamide] cannot be ordered by IC50: ≤ 100 nM for the first, ≤ 100 nM for the second.

`O=C(Nc1cc(-c2cc(OCCCCO)ccc2Cl)ccn1)c1nnc(CC2CCCC2)[nH]1` [Example 373, N-(4-(2-chloro-5-(4-hydroxybutoxy)phenyl)pyridin-2-yl)-5-(cyclopentylmethyl)-4H-1,2,4-triazole-3-carboxamide] and `O=C(Nc1cc(-c2cc(OCCCCCO)ccc2Cl)ccn1)c1nnc(CC2CCCC2)[nH]1` [Example 377, N-(4-(2-chloro-5-((5-hydroxypentyl)oxy)phenyl)pyridin-2-yl)-5-(cyclopentylmethyl)-4H-1,2,4-triazole-3-carboxamide] cannot be ordered by IC50: ≤ 100 nM for the first, ≤ 100 nM for the second.

`O=C(Nc1cc(-c2cc(OCCCCCO)ccc2Cl)ccn1)c1nnc(CC2CCCCC2)[nH]1` [Example 378, N-(4-(2-chloro-5-((5-hydroxypentyl)oxy)phenyl)pyridin-2-yl)-5-(cyclohexylmethyl)-4H-1,2,4-triazole-3-carboxamide] and `COCCOc1ccc(Cl)c(-c2ccnc(NC(=O)c3nnc(CC4CCCCC4)[nH]3)c2)c1` [Example 382, N-(4-(2-chloro-5-(2-methoxyethoxy)phenyl)pyridin-2-yl)-5-(cyclohexylmethyl)-4H-1,2,4-triazole-3-carboxamide] cannot be ordered by IC50: ≤ 100 nM for the first, ≤ 100 nM for the second.

`COCCOc1ccc(Cl)c(-c2ccnc(NC(=O)c3nnc(Cc4ccccc4)[nH]3)c2)c1` [Example 379, 5-benzyl-N-(4-(2-chloro-5-(2-methoxyethoxy)phenyl)pyridin-2-yl)-4H-1,2,4-triazole-3-carboxamide] and `CCOCCOc1ccc(Cl)c(-c2ccnc(NC(=O)c3nnc(Cc4ccccc4)[nH]3)c2)c1` [Example 383, 5-benzyl-N-(4-(2-chloro-5-(2-ethoxyethoxy)phenyl)pyridin-2-yl)-4H-1,2,4-triazole-3-carboxamide] cannot be ordered by IC50: 100 to 1000 nM for the first, ≤ 100 nM for the second.

`COCCOc1ccc(Cl)c(-c2ccnc(NC(=O)c3nnc(Cc4ccccc4F)[nH]3)c2)c1` [Example 380, 5-(2-fluorobenzyl)-N-(4-(2-chloro-5-(2-methoxyethoxy)phenyl)pyridin-2-yl)-4H-1,2,4-triazole-3-carboxamide] and `CCOCCOc1ccc(Cl)c(-c2ccnc(NC(=O)c3nnc(Cc4ccccc4F)[nH]3)c2)c1` [Example 384, 5-(2-fluorobenzyl)-N-(4-(2-chloro-5-(2-ethoxyethoxy)phenyl)pyridin-2-yl)-4H-1,2,4-triazole-3-carboxamide] cannot be ordered by IC50: ≤ 100 nM for the first, ≤ 100 nM for the second.

`COCCOc1ccc(Cl)c(-c2ccnc(NC(=O)c3nnc(CC4CCCC4)[nH]3)c2)c1` [Example 381, N-(4-(2-chloro-5-(2-methoxyethoxy)phenyl)pyridin-2-yl)-5-(cyclopentylmethyl)-4H-1,2,4-triazole-3-carboxamide] and `CCOCCOc1ccc(Cl)c(-c2ccnc(NC(=O)c3nnc(CC4CCCC4)[nH]3)c2)c1` [Example 385, N-(4-(2-chloro-5-(2-ethoxyethoxy)phenyl)pyridin-2-yl)-5-(cyclopentylmethyl)-4H-1,2,4-triazole-3-carboxamide] cannot be ordered by IC50: ≤ 100 nM for the first, ≤ 100 nM for the second.

`CCOCCOc1ccc(Cl)c(-c2ccnc(NC(=O)c3nnc(CC4CCCCC4)[nH]3)c2)c1` [Example 386, N-(4-(2-chloro-5-(2-ethoxyethoxy)phenyl)pyridin-2-yl)-5-(cyclohexylmethyl)-4H-1,2,4-triazole-3-carboxamide] and `CC(C)OCCOc1ccc(Cl)c(-c2ccnc(NC(=O)c3nnc(Cc4ccccc4)[nH]3)c2)c1` [Example 387, 5-benzyl-N-(4-(2-chloro-5-(2-isopropoxyethoxy)phenyl)pyridin-2-yl)-4H-1,2,4-triazole-3-carboxamide] cannot be ordered by IC50: ≤ 100 nM for the first, ≤ 100 nM for the second.
